Measured values as given in PubChem BioAssay AID1259407 (Chemical Carcinogenesis Research Information System (CCRIS), 2018).
Calls of active or inactive are those of the source. How the calls were made is not given here.

Test system: CCRIS mutagenicity, Ames/micronucleus/aberration tests
Test: CCRIS mutagenicity studies
[1] = Test System: AMES SALMONELLA TYPHIMURIUM, Strain/Indicator: TA100, Metabolic Activation: NONE, Method: STANDARD PLATE
[2] = Test System: AMES SALMONELLA TYPHIMURIUM, Strain/Indicator: TA98, Metabolic Activation: NONE, Method: PREINCUBATION
[3] = Test System: AMES SALMONELLA TYPHIMURIUM, Strain/Indicator: TA100, Metabolic Activation: NONE, Method: PREINCUBATION

O=NN(c1ccc([N+](=O)[O-])cc1)C1OC[C@H](O)[C@H](O)[C@H]1O (some centres undefined)
mutagenic call [1]: active; positive

O=C(O)c1cc(Cl)ccc1Cl
mutagenic call [2]: inactive; negative | mutagenic call (Test System: AMES SALMONELLA TYPHIMURIUM, Strain/Indicator: TA98, Metabolic Activation: RAT LIVER S-9, PCB, Method: PREINCUBATION): inactive; negative | mutagenic call [3]: inactive; negative | mutagenic call (Test System: AMES SALMONELLA TYPHIMURIUM, Strain/Indicator: TA100, Metabolic Activation: RAT LIVER S-9, PCB, Method: PREINCUBATION): inactive; negative | mutagenic call (Test System: AMES SALMONELLA TYPHIMURIUM, Strain/Indicator: TA104, Metabolic Activation: NONE, Method: PREINCUBATION): inactive; negative | mutagenic call (Test System: AMES SALMONELLA TYPHIMURIUM, Strain/Indicator: TA104, Metabolic Activation: RAT LIVER S-9, PCB, Method: PREINCUBATION): inactive; negative | mutagenic call (Test System: E.COLI, Strain/Indicator: WP2 UVRA, Metabolic Activation: NONE, Method: PREINCUBATION): inactive; negative | mutagenic call (Test System: E.COLI, Strain/Indicator: WP2 UVRA, Metabolic Activation: RAT LIVER S-9, PCB, Method: PREINCUBATION): inactive; negative

Nc1ccc2c(c1)CN1C(=O)c3ccccc3C1=N2
mutagenic call (Test System: AMES SALMONELLA TYPHIMURIUM, Strain/Indicator: DJ400, Metabolic Activation: RAT, LIVER, S-9, AROCLOR 1254, Method: PREINCUBATION): active; positive | mutagenic call (Test System: AMES SALMONELLA TYPHIMURIUM, Strain/Indicator: DJ460, Metabolic Activation: RAT, LIVER, S-9, AROCLOR 1254, Method: PREINCUBATION): active; positive | mutagenic call (Test System: AMES SALMONELLA TYPHIMURIUM, Strain/Indicator: TA98(1,8-DNP6), Metabolic Activation: RAT, LIVER, S-9, AROCLOR 1254, Method: PREINCUBATION): active; positive | mutagenic call [2]: active; positive | mutagenic call (Test System: AMES SALMONELLA TYPHIMURIUM, Strain/Indicator: TA98, Metabolic Activation: RAT, LIVER, S-9, AROCLOR 1254, Method: PREINCUBATION): active; positive | mutagenic call [3]: active; positive | mutagenic call (Test System: AMES SALMONELLA TYPHIMURIUM, Strain/Indicator: TA100, Metabolic Activation: RAT, LIVER, S-9, AROCLOR 1254, Method: PREINCUBATION): active; positive | mutagenic call (Test System: AMES SALMONELLA TYPHIMURIUM, Strain/Indicator: TA102, Metabolic Activation: NONE, Method: PREINCUBATION): active; positive | mutagenic call (Test System: AMES SALMONELLA TYPHIMURIUM, Strain/Indicator: TA102, Metabolic Activation: RAT, LIVER, S-9, AROCLOR 1254, Method: PREINCUBATION): active; positive | mutagenic call (Test System: AMES SALMONELLA TYPHIMURIUM, Strain/Indicator: TA1538(1,8-DNP6), Metabolic Activation: RAT, LIVER, S-9, AROCLOR 1254, Method: PREINCUBATION): active; positive | mutagenic call (Test System: AMES SALMONELLA TYPHIMURIUM, Strain/Indicator: TA1538, Metabolic Activation: RAT, LIVER, S-9, AROCLOR 1254, Method: PREINCUBATION): active; positive | mutagenic call (Test System: AMES SALMONELLA TYPHIMURIUM, Strain/Indicator: YG1012, Metabolic Activation: RAT, LIVER, S-9, AROCLOR 1254, Method: PREINCUBATION): active; positive | mutagenic call (Test System: AMES SALMONELLA TYPHIMURIUM, Strain/Indicator: YG1024, Metabolic Activation: RAT, LIVER, S-9, AROCLOR 1254, Method: PREINCUBATION): active; positive | mutagenic call (Test System: UDS MOUSE HEPATOCYTES, Strain/Indicator: THY INCORP, Metabolic Activation: NONE, Method: AUTORADIOGRAPHY): active; positive | mutagenic call (Test System: UDS RAT HEPATOCYTES, Strain/Indicator: THY INCORP, Metabolic Activation: NONE, Method: AUTORADIOGRAPHY): active; positive

N#CC1=C(C#N)SCCS1
mutagenic call (Test System: AMES SALMONELLA TYPHIMURIUM, Strain/Indicator: TA98, Metabolic Activation: NONE, Method: STANDARD PLATE): inactive; negative | mutagenic call (Test System: AMES SALMONELLA TYPHIMURIUM, Strain/Indicator: TA98, Metabolic Activation: RAT, LIVER, S-9, AROCLOR 1254, Method: STANDARD PLATE): inactive; negative | mutagenic call [1]: inactive; negative | mutagenic call (Test System: AMES SALMONELLA TYPHIMURIUM, Strain/Indicator: TA100, Metabolic Activation: RAT, LIVER, S-9, AROCLOR 1254, Method: STANDARD PLATE): inactive; negative | mutagenic call (Test System: AMES SALMONELLA TYPHIMURIUM, Strain/Indicator: TA1535, Metabolic Activation: NONE, Method: STANDARD PLATE): inactive; negative | mutagenic call (Test System: AMES SALMONELLA TYPHIMURIUM, Strain/Indicator: TA1535, Metabolic Activation: RAT, LIVER, S-9, AROCLOR 1254, Method: STANDARD PLATE): inactive; negative | mutagenic call (Test System: AMES SALMONELLA TYPHIMURIUM, Strain/Indicator: TA1537, Metabolic Activation: NONE, Method: STANDARD PLATE): inactive; negative | mutagenic call (Test System: AMES SALMONELLA TYPHIMURIUM, Strain/Indicator: TA1537, Metabolic Activation: RAT, LIVER, S-9, AROCLOR 1254, Method: STANDARD PLATE): inactive; negative | mutagenic call (Test System: AMES SALMONELLA TYPHIMURIUM, Strain/Indicator: TA1538, Metabolic Activation: NONE, Method: STANDARD PLATE): inactive; negative | mutagenic call (Test System: AMES SALMONELLA TYPHIMURIUM, Strain/Indicator: TA1538, Metabolic Activation: RAT, LIVER, S-9, AROCLOR 1254, Method: STANDARD PLATE): inactive; negative

Nc1ccccc1C(=O)C[C@H](N)C(=O)O
mutagenic call [3]: inactive; negative

CC(=O)[O-].CC(=O)[O-].O.O.O.O.[Co+2]
mutagenic call (End Point: In vitro chromosomal aberrations, Test System: Chinese hamster lung (CHL/IU) cells, Metabolic Activation: None): active; positive (structural changes) | mutagenic call (End Point: In vitro chromosomal aberrations, Test System: Chinese hamster lung (CHL/IU) cells, Metabolic Activation: Rat, Liver, S9, Phenobarbital and 5,6-benzoflavone): active; positive (structural changes) | mutagenic call (Test System: Ames Salmonella typhimurium, Strain/Indicator: TA98, Metabolic Activation: Rat, Liver, S9, Sodium phenobarbital and 5,6-benzoflavone (10%), Method: Preincubation): inactive; negative | mutagenic call (Test System: Ames Salmonella typhimurium, Strain/Indicator: TA100, Metabolic Activation: Rat, Liver, S9, Sodium phenobarbital and 5,6-benzoflavone (10%), Method: Preincubation): inactive; negative | mutagenic call (Test System: Ames Salmonella typhimurium, Strain/Indicator: TA1535, Metabolic Activation: None, Method: Preincubation): inactive; negative | mutagenic call (Test System: Ames Salmonella typhimurium, Strain/Indicator: TA1535, Metabolic Activation: Rat, Liver, S9, Sodium phenobarbital and 5,6-benzoflavone (10%), Method: Preincubation): inactive; negative | mutagenic call (Test System: Ames Salmonella typhimurium, Strain/Indicator: TA1537, Metabolic Activation: Rat, Liver, S9, Sodium phenobarbital and 5,6-benzoflavone (10%), Method: Preincubation): inactive; negative | mutagenic call (Test System: E. coli, Strain/Indicator: WP2uvrA/pKM101, Metabolic Activation: None, Method: Preincubation): active; positive | mutagenic call (Test System: E. coli, Strain/Indicator: WP2uvrA/pKM101, Metabolic Activation: Rat, Liver, S9, Sodium phenobarbital and 5,6-benzoflavone (10%), Method: Preincubation): inactive; negative
